Laboratory results from BindingDB's records for doi:10.7270/Q2TX3CSC (Vanderbilt Screening Center for GPCRs, Ion Channels and …, 2009).

Target: T1, Solute carrier family 12 member 5 (Homo sapiens, UniProt Q9H2X9)
T1 sequence (Q9H2X9 whole entry): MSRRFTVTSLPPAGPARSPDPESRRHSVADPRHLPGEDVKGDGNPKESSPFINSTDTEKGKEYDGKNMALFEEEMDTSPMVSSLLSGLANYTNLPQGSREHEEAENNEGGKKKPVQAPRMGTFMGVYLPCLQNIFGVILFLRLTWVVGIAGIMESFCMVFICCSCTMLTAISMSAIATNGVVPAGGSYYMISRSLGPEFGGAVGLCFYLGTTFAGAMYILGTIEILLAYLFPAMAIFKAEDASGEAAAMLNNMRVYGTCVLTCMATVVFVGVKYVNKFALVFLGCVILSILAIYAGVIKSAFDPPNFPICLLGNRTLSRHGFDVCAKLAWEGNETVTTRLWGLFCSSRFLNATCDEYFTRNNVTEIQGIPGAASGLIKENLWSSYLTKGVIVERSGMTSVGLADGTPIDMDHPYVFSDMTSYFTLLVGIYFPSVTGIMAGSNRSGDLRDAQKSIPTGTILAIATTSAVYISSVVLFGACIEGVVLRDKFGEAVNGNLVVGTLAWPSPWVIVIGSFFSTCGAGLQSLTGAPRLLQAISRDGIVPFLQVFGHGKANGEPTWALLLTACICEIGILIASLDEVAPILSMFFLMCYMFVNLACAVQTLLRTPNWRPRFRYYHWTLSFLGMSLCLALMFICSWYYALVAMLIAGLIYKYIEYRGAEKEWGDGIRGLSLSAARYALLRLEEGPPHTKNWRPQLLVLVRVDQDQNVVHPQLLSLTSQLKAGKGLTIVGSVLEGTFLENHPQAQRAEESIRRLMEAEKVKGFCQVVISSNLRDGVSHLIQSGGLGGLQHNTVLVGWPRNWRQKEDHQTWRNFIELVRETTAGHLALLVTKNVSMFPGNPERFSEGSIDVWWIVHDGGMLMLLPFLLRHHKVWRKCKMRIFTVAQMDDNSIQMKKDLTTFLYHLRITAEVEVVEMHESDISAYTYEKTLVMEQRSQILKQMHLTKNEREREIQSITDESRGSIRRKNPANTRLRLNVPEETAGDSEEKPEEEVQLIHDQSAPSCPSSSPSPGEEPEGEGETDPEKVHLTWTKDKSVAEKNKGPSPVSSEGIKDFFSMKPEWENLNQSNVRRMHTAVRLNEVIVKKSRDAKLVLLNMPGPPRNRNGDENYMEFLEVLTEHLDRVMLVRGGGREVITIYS
Experiment: concentration-response of KCC2 transport modulators – cell-based, HEK293 KCC2, FluoZin-2 fluorescence, dose response (AID 1736)
Details: not given

Row | SMILES | EC50 [µM]
1 | CC(=O)NCCC(=O)N1CCCC(CNC(=O)c2ccc(-c3ccccc3)cc2)C1 (stereo not given) [MLS000733794] | 5
2 | S=C(NCc1cccnc1)Nc1ccc(Oc2ccccc2)cc1 [1-(4-phenoxyphenyl)-3-(3-pyridinylmethyl)thiourea] | 8.45
3 | Fc1ccc(CSc2nncn2NC/C=C/c2ccccc2)cc1 [3-[(4-fluorobenzyl)thio]-N-(3-phenyl-2-propen-1-yl)-4H-1,2,4-triazol-4-amine] | 30.2
4 | Cc1cccc(Nc2nnc(SCC(=O)c3ccc(Br)s3)s2)c1C [1-(5-bromanylthiophen-2-yl)-2-[[5-[(2,3-dimethylphenyl)amino]-1,3,4-thiadiazol-2-yl]sulfanyl]ethanone] | 1.41
5 | O=C(c1ccc(S(=O)(=O)c2cccc(Cl)c2)c([N+](=O)[O-])c1)N1CCN(c2ccccn2)CC1 [1-{4-[(3-chlorophenyl)sulfonyl]-3-nitrobenzoyl}-4-pyridin-2-ylpiperazine] | 6.85
6 | Cc1nc(SCc2ccc(F)cc2)c([N+](=O)[O-])[nH]1 [SMR000271028] | 6.28
7 | Cc1ccc(S(=O)(=O)N2CCC(=O)N(C(COCc3ccccc3)Cc3ccccc3)CC2)cc1 (stereo not given) [1-(4-methylphenyl)sulfonyl-4-(1-phenyl-3-phenylmethoxy-propan-2-yl)-1,4-diazepan-5-one] | 1.69
8 | O=C(NCCc1cn2ccccc2n1)c1cc(COc2c(F)cccc2F)on1 [5-[(2,6-difluorophenoxy)methyl]-N-(2-imidazo[1,2-a]pyridin-2-ylethyl)-1,2-oxazole-3-carboxamide] | 78.9
9 | O=C(c1ccccc1SCc1ccc(F)cc1)N1CCOCC1 [MLS000712999] | 6.48
10 | O=C(CSc1ccccc1C(=O)NCc1ccccc1)NC12CC3CC(CC(C3)C1)C2 | 9.17
11 | CN1/C(=C\C(=S)NC(=O)c2cccc(Br)c2)C(C)(C)c2ccccc21 [SMR000254682] | 5.4
12 | O=C(O)c1cc(-c2ccc(F)cc2F)ccc1O | 25.7
13 | Cc1ccc(C)c(NC(=O)CSc2nnc([C@@H](N)Cc3ccccc3)o2)c1 [2-[5-((S)-1-Amino-2-phenyl-ethyl)-[1,3,4]oxadiazol-2-ylsulfanyl]-N-(2,5-dimethyl-phenyl)-acetamide] | 5.54
14 | Cc1onc(-c2ccccc2Cl)c1C(=O)NC(=S)Nc1ccc(C(C)C)cc1 [3-(2-chlorophenyl)-5-methyl-N-(p-cumenylthiocarbamoyl)isoxazole-4-carboxamide] | 0.271
15 | O=S(=O)(Nc1nc2ccccc2nc1N1CCN(c2ccccn2)CC1)c1ccc(Cl)cc1 [4-chloranyl-N-[3-(4-pyridin-2-ylpiperazin-1-yl)quinoxalin-2-yl]benzenesulfonamide] | 6.8
16 | O=C(CSc1nnnn1-c1ccc(Cl)cc1)N1CCc2ccccc2C1 [2-[1-(4-chlorophenyl)tetrazol-5-yl]sulfanyl-1-(3,4-dihydro-1H-isoquinolin-2-yl)ethanone] | 4.09
17 | O=C(CN(c1ccc2c(c1)OCCO2)S(=O)(=O)c1ccccc1)N1CCN(Cc2ccccc2)CC1 [MLS000693333] | 11.7
18 | O=S(=O)(NCc1ccccc1)c1ccc(Cl)c(S(=O)(=O)NCc2ccccc2)c1 [1-N,3-N-dibenzyl-4-chlorobenzene-1,3-disulfonamide] | 2.34
19 | O=C(OCn1ncc(Cl)c(Cl)c1=O)c1ccc(F)cc1 [(4,5-dichloro-6-oxopyridazin-1-yl)methyl 4-fluorobenzoate] | 14.1
20 | O=C(NCc1ccc2c(c1)OCO2)c1ccc(COc2cc(Cl)ccc2Cl)o1 [5-[(2,5-dichlorophenoxy)methyl]-N-piperonyl-2-furamide] | 6.14
21 | COc1cc(C=NNC(=O)CN(Cc2ccccc2)S(=O)(=O)c2ccc3c(c2)OCCO3)ccc1O [2,3-Dihydro-benzo[1,4]dioxine-6-sulfonic acid benzyl-(4-hydroxy-3-methoxy-benzylidene-hydrazinocarbonylmethyl)-amide] | 2.79
22 | O=C(O)CCc1cc(I)c(Oc2ccc(O)c(I)c2)c(I)c1 [3-[4-(4-hydroxy-3-iodophenoxy)-3,5-diiodophenyl]propanoic acid] | 5.39
23 | Cn1c(C(=O)NCCCN2CCN(c3ccccc3F)CC2)cc2c(=O)n(C)c3ccccc3c21 [MLS000118127] | 10.3
24 | CSCCC(=O)N1CCCC(CNC(=O)c2ccc(-c3ccccc3)cc2)C1 (stereo not given) [MLS000733867] | 7.78

Continued, values first:

Row | EC50 [µM] | SMILES
25 | 3.59 | O=C(Cc1csc(-c2ccccc2)n1)NCc1ccc(F)cc1 [MLS000336311]
26 | 0.38 | O=C(NN1C(=O)/C(=C/c2nc3ccccc3[nH]2)SC1=S)c1ccccc1 [N-[(5Z)-5-(1H-benzimidazol-2-ylmethylidene)-4-oxidanylidene-2-sulfanylidene-1,3-thiazolidin-3-yl]benzamide]
27 | 500 | O=C(O)CC/C(=C\c1ccccc1[N+](=O)[O-])c1nc2ccccc2s1 [(E)-4-(1,3-benzothiazol-2-yl)-5-(2-nitrophenyl)-4-pentenoic acid]
28 | 4.42 | C=CCn1c(Cc2cccs2)nnc1SCC(=O)c1ccc2ccccc2c1 [1-(2-naphthalenyl)-2-[[4-prop-2-enyl-5-(thiophen-2-ylmethyl)-1,2,4-triazol-3-yl]thio]ethanone]
29 | 17.2 | CCc1ccc(C(=O)COC(=O)c2cc([N+](=O)[O-])ccc2NCCO)cc1 [2-(2-hydroxyethylamino)-5-nitro-benzoic acid [2-(4-ethylphenyl)-2-keto-ethyl] ester]
30 | 21.3 | Cc1nn(-c2nc3ccccc3[nH]2)c(N)c1-c1ccccc1 [MLS000063763]
31 | 7.63 | COc1ccc(S(=O)(=O)N(CCc2ccccc2)CC(=O)O)cc1Cl [2-[(3-chloranyl-4-methoxy-phenyl)sulfonyl-(2-phenylethyl)amino]ethanoic acid]
32 | 16.2 | O=C(NC(=S)Nc1nc(-c2cccc([N+](=O)[O-])c2)cs1)c1cc(Cl)ccc1Cl [2,5-bis(chloranyl)-N-[[4-(3-nitrophenyl)-1,3-thiazol-2-yl]carbamothioyl]benzamide]
33 | 7.15 | Cc1ccccc1-c1nc(C[S+]([O-])CC(=O)NCc2ccccc2)c(C)o1 (stereo not given) [2-[[5-methyl-2-(2-methylphenyl)-1,3-oxazol-4-yl]methylsulfinyl]-N-(phenylmethyl)ethanamide]
34 | 0.174 | O=C(NNc1nc(-c2ccccc2)cs1)c1cccs1 [MLS000858987]

Same assay, conditions: inactive by the depositor's call

Row | SMILES | EC50 [µM]
35 | CC(C)Oc1ccccc1OCCCOc1cccc2cccnc12 [8-[3-(2-isopropoxyphenoxy)propoxy]quinoline] | 10.5
36 | S=c1[nH]nc(-c2cccc(Cl)c2)n1N=Cc1ccco1 [3-(3-chlorophenyl)-4-(furan-2-ylmethylideneamino)-1H-1,2,4-triazole-5-thione] | 60.1
37 | Cc1cc2ccccn2c1C(=O)c1nc(N2CCOCC2)ncc1Cl [(5-chloranyl-2-morpholin-4-yl-pyrimidin-4-yl)-(2-methylindolizin-3-yl)methanone] | 11

The remaining lines, values ahead:

Row | EC50 [µM] | SMILES
38 | 1.68 | COc1ccc(C(=O)CSc2nnnn2Cc2ccccc2)cc1 [1-(4-methoxyphenyl)-2-[[1-(phenylmethyl)-1,2,3,4-tetrazol-5-yl]sulfanyl]ethanone]
39 | 1.81 | Cc1nc(CC(=O)Nc2nc(-c3ccccc3)cs2)cs1 [2-(2-methyl-1,3-thiazol-4-yl)-N-(4-phenyl-1,3-thiazol-2-yl)acetamide]
40 | 2.62 | COc1ccc(OC)c2sc(NNC(=O)COc3ccccc3)nc12 [MLS000419249]
